{"source": "paper PMC6199309", "about": "“A therapeutic approach to pantothenate kinase associated neurodegeneration” (Nature Communications, 2018)", "assay_in_all_cases": "KINOMEscan", "assay_type_in_all_cases": "binding", "settings_in_all_cases": "read-out: %Ctrl @ 10000nM", "key": {"AXL": {"target": "T1, AXL (Homo sapiens, UniProt P30530)", "T1 construct": "purchased DiscoverX KINOMEscan", "T1 sequence (P30530 26-894)": "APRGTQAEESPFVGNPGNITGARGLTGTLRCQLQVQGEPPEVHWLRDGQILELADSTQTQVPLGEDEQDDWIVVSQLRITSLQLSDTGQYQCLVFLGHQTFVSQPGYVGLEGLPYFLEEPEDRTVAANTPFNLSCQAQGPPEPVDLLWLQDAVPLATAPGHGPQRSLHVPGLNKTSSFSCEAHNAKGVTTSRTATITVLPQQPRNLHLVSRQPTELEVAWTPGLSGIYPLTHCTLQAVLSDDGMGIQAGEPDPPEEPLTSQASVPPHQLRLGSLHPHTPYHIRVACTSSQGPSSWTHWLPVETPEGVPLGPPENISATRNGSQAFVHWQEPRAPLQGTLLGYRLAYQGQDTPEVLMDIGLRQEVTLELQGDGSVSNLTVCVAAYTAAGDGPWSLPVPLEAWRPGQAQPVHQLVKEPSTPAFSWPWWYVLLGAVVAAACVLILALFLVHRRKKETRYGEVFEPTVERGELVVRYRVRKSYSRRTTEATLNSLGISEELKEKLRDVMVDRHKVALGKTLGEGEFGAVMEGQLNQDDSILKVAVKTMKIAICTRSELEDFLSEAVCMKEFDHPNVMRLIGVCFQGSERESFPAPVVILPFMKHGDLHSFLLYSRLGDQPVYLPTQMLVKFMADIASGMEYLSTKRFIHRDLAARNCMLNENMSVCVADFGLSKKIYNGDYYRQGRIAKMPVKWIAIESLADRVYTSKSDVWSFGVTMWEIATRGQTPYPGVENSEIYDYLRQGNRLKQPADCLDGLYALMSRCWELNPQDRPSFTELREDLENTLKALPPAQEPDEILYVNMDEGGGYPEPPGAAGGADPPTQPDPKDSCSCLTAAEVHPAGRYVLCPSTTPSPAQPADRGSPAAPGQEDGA"}, "BMPR1A": {"target": "T2, BMPR1A (Homo sapiens, UniProt P36894)", "T2 construct": "purchased DiscoverX KINOMEscan"}, "CAMKK1": {"target": "T3, CAMKK1 (Homo sapiens, UniProt Q8N5S9)", "T3 construct": "purchased DiscoverX KINOMEscan"}, "CDK4-cyclinD1": {"target": "T4, CDK4-cyclinD1 (Homo sapiens, UniProt P11802)", "T4 construct": "purchased DiscoverX KINOMEscan"}, "CSNK1A1L": {"target": "T5, CSNK1A1L (Homo sapiens, UniProt Q8N752)", "T5 construct": "purchased DiscoverX KINOMEscan"}, "DAPK2": {"target": "T6, DAPK2 (Homo sapiens, UniProt Q9UIK4)", "T6 construct": "purchased DiscoverX KINOMEscan"}, "DCAMKL3": {"target": "T7, DCAMKL3 (Homo sapiens, UniProt Q9C098)", "T7 construct": "purchased DiscoverX KINOMEscan"}, "[1]": {"target": "T8, EGFR(L747-S752del, P753S) (Homo sapiens, UniProt P00533, DEL747-752/P753S)", "T8 construct": "purchased DiscoverX KINOMEscan"}, "EGFR(L858R)": {"target": "T9, EGFR(L858R) (Homo sapiens, UniProt P00533, L858R)", "T9 construct": "purchased DiscoverX KINOMEscan"}, "EPHA6": {"target": "T10, EPHA6 (Homo sapiens, UniProt Q9UF33)", "T10 construct": "purchased DiscoverX KINOMEscan"}, "ERBB2": {"target": "T11, ERBB2 (Homo sapiens, UniProt P04626)", "T11 construct": "purchased DiscoverX KINOMEscan"}, "FLT4": {"target": "T12, FLT4 (Homo sapiens, UniProt P35916)", "T12 construct": "purchased DiscoverX KINOMEscan"}, "IKK-beta": {"target": "T13, IKK-beta (Homo sapiens, UniProt O14920)", "T13 construct": "purchased DiscoverX KINOMEscan"}, "[2]": {"target": "T14, JAK1(JH2domain-pseudokinase) (Homo sapiens, UniProt P23458)", "T14 construct": "JAK1(JH2domain-pseudokinase); purchased DiscoverX KINOMEscan", "T14 sequence (P23458 574-855 limits assumed)": "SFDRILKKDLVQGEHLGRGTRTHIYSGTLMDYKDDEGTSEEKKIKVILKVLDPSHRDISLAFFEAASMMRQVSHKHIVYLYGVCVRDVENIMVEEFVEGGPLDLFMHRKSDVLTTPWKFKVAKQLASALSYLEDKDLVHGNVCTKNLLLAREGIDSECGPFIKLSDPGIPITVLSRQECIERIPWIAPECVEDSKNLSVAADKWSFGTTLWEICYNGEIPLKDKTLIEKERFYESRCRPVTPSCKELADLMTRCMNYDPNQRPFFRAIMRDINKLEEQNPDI"}, "[3]": {"target": "T15, JAK3(JH1domain-catalytic) (Homo sapiens, UniProt P52333)", "T15 construct": "JAK3(JH1domain-catalytic); purchased DiscoverX KINOMEscan", "T15 sequence (P52333 814-1124 limits assumed)": "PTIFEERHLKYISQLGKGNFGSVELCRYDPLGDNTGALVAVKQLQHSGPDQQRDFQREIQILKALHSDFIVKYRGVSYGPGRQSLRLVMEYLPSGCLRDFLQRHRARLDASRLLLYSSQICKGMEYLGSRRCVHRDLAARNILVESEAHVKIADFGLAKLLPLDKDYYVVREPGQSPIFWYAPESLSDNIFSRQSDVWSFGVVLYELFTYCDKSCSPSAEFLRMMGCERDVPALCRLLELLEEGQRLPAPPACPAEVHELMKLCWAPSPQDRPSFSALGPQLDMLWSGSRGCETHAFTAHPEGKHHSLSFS"}, "KIT(D816H)": {"target": "T16, KIT(D816H) (Homo sapiens, UniProt P10721, D816H)", "T16 construct": "purchased DiscoverX KINOMEscan"}, "MAP4K2": {"target": "T17, MAP4K2 (Homo sapiens, UniProt Q12851)", "T17 construct": "purchased DiscoverX KINOMEscan"}, "MAP4K3": {"target": "T18, MAP4K3 (Homo sapiens, UniProt Q8IVH8)", "T18 construct": "purchased DiscoverX KINOMEscan"}, "MARK2": {"target": "T19, MARK2 (Homo sapiens, UniProt Q7KZI7)", "T19 construct": "purchased DiscoverX KINOMEscan"}, "MELK": {"target": "T20, MELK (Homo sapiens, UniProt Q14680)", "T20 construct": "purchased DiscoverX KINOMEscan"}, "MET(Y1235D)": {"target": "T21, MET(Y1235D) (Homo sapiens, UniProt P08581, Y1235D)", "T21 construct": "purchased DiscoverX KINOMEscan"}, "MST2": {"target": "T22, MST2 (Homo sapiens, UniProt Q13188)", "T22 construct": "purchased DiscoverX KINOMEscan"}, "NDR1": {"target": "T23, NDR1 (Homo sapiens, UniProt Q15208)", "T23 construct": "purchased DiscoverX KINOMEscan"}, "NEK11": {"target": "T24, NEK11 (Homo sapiens, UniProt Q8NG66)", "T24 construct": "purchased DiscoverX KINOMEscan"}, "NIK": {"target": "T25, NIK (Homo sapiens, UniProt Q99558)", "T25 construct": "purchased DiscoverX KINOMEscan"}, "PAK4": {"target": "T26, PAK4 (Homo sapiens, UniProt O96013)", "T26 construct": "purchased DiscoverX KINOMEscan"}, "PDGFRB": {"target": "T27, PDGFRB (Homo sapiens, UniProt P09619)", "T27 construct": "purchased DiscoverX KINOMEscan", "T27 sequence (P09619 33-1106)": "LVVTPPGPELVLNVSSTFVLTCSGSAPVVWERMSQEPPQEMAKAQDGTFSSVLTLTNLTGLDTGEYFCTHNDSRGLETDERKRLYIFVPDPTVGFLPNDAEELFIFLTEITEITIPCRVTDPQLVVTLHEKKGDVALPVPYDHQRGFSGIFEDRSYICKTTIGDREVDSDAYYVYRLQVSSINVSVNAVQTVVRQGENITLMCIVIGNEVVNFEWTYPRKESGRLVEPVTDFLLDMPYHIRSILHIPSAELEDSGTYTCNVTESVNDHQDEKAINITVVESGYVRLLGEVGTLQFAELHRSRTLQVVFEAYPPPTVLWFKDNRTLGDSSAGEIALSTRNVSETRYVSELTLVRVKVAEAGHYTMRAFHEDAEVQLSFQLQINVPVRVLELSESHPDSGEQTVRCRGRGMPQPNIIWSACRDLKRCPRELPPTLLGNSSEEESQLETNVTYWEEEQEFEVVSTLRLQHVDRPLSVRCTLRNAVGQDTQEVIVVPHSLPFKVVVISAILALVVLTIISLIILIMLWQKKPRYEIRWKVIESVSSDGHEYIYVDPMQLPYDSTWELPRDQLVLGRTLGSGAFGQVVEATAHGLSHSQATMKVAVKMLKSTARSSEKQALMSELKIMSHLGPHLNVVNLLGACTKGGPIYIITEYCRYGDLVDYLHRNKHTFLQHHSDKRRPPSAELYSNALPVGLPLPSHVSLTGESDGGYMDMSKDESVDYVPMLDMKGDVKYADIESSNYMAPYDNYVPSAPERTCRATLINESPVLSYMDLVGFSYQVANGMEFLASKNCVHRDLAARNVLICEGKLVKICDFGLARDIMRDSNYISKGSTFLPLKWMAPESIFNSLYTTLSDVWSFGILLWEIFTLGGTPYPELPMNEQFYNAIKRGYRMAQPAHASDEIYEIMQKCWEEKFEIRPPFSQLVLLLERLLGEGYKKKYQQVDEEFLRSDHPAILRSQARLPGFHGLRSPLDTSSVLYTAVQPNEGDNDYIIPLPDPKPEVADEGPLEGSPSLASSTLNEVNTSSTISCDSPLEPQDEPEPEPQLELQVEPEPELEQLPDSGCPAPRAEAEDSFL"}, "PFPK5(P.falciparum)": {"target": "T28, PFPK5(P.falciparum) (Plasmodium falciparum, UniProt P61075)", "T28 construct": "purchased DiscoverX KINOMEscan"}, "PIK3CA(E545K)": {"target": "T29, PIK3CA(E545K) (Homo sapiens, UniProt P42336, E545K)", "T29 construct": "purchased DiscoverX KINOMEscan"}, "PIM2": {"target": "T30, PIM2 (Homo sapiens, UniProt Q9P1W9)", "T30 construct": "purchased DiscoverX KINOMEscan"}, "PRKCI": {"target": "T31, PRKCI (Homo sapiens, UniProt P41743)", "T31 construct": "purchased DiscoverX KINOMEscan", "T31 sequence (P41743 whole entry)": "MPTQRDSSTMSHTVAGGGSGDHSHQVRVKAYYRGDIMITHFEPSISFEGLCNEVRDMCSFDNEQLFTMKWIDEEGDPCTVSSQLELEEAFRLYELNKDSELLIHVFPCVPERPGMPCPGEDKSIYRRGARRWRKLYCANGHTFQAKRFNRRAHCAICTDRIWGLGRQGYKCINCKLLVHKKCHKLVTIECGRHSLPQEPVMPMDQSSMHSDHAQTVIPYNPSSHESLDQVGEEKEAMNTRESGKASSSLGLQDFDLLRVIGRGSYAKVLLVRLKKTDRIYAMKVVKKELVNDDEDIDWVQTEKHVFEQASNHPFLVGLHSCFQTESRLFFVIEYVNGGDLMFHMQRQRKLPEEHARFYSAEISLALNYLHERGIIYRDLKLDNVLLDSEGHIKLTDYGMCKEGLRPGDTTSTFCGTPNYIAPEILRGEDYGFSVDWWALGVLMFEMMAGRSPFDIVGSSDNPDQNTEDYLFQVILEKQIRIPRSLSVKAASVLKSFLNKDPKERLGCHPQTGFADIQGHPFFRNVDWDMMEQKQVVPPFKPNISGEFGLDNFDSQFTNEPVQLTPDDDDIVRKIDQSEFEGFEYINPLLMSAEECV"}, "PRKCQ": {"target": "T32, PRKCQ (Homo sapiens, UniProt Q04759)", "T32 construct": "purchased DiscoverX KINOMEscan"}, "RAF1": {"target": "T33, RAF1 (Homo sapiens, UniProt P04049)", "T33 construct": "purchased DiscoverX KINOMEscan"}, "RIPK4": {"target": "T34, RIPK4 (Homo sapiens, UniProt P57078)", "T34 construct": "purchased DiscoverX KINOMEscan"}, "ROCK2": {"target": "T35, ROCK2 (Homo sapiens, UniProt O75116)", "T35 construct": "purchased DiscoverX KINOMEscan", "T35 sequence (O75116 whole entry)": "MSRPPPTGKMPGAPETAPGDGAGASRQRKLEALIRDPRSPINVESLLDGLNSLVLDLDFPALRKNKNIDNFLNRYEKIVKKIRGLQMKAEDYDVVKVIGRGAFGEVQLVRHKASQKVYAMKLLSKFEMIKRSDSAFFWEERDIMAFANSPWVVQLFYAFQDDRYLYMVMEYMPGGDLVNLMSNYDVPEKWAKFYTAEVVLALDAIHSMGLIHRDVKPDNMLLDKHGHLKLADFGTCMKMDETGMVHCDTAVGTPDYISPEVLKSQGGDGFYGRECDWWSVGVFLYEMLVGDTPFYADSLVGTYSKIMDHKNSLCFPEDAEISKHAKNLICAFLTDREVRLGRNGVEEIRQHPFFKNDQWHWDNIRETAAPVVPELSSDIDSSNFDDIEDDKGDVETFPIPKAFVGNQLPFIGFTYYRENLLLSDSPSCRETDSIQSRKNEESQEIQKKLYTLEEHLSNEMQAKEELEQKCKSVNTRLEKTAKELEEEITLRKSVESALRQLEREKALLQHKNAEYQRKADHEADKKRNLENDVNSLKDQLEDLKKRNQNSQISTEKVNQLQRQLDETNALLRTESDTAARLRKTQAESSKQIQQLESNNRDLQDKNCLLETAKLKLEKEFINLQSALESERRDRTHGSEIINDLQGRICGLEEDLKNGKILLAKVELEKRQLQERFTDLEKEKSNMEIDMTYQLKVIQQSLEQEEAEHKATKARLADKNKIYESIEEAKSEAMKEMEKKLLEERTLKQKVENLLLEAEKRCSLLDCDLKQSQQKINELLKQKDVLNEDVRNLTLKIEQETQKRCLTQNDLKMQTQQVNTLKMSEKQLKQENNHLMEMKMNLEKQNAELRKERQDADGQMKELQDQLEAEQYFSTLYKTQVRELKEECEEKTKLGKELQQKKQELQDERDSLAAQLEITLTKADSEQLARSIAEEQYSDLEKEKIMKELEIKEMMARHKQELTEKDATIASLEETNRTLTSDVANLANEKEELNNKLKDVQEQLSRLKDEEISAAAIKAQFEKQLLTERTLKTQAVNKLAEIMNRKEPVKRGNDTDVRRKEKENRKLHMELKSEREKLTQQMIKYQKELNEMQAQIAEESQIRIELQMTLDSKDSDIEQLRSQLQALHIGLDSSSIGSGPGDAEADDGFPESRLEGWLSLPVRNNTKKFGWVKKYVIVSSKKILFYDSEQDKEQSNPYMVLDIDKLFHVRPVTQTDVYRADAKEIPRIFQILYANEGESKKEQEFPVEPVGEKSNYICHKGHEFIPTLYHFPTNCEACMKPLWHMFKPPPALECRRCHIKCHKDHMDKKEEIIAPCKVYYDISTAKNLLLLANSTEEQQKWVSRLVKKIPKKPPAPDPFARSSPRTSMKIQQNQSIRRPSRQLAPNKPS"}, "SRC": {"target": "T36, SRC (Homo sapiens, UniProt P12931)", "T36 construct": "purchased DiscoverX KINOMEscan", "T36 sequence (P12931 whole entry)": "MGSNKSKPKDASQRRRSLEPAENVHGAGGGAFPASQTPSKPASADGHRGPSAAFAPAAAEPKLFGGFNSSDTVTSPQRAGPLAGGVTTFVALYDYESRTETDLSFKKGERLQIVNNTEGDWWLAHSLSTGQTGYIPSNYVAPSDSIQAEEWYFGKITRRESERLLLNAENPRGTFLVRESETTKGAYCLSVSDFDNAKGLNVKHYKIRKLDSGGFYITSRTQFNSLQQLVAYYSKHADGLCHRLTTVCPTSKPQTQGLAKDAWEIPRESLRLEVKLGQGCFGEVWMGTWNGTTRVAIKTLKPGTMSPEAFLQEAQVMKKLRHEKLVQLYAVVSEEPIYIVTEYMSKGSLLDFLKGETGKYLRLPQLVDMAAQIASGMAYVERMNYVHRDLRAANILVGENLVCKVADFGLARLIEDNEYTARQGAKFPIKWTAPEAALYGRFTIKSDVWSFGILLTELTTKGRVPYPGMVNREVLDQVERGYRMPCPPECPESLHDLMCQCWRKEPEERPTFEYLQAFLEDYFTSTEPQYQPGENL"}, "STK35": {"target": "T37, STK35 (Homo sapiens, UniProt Q8TDR2)", "T37 construct": "DNA tag for qPCR (T7 phage fusion or DNA label); purchased DiscoverX KdELECT; host or cells: E. coli BL21-derived (T7 phage) or HEK-293"}, "STK39": {"target": "T38, STK39 (Homo sapiens, UniProt Q9UEW8)", "T38 construct": "purchased DiscoverX KINOMEscan"}, "TAOK2": {"target": "T39, TAOK2 (Homo sapiens, UniProt Q9UL54)", "T39 construct": "purchased DiscoverX KINOMEscan"}, "ZAP70": {"target": "T40, ZAP70 (Homo sapiens, UniProt P43403)", "T40 construct": "purchased DiscoverX scanMAX; host or cells: E. coli BL21-derived host (T7 phage) or HEK-293"}}}
{"smiles": "CC(C)c1ccc(CC(=O)N2CCN(c3ccc(C#N)nn3)CC2)cc1", "note": "[PZ-2891, 6-(4-(2-(4-isopropylphenyl)acetyl)piperazin-1-yl)pyridazine-3-carbonitrile]", "values": [{"measurement": "remaining binding at 10 µM", "setting": "AXL", "value": 73, "unit": "%"}, {"measurement": "remaining binding at 10 µM", "setting": "BMPR1A", "value": 100, "unit": "%"}, {"measurement": "remaining binding at 10 µM", "setting": "CAMKK1", "value": 89, "unit": "%"}, {"measurement": "remaining binding at 10 µM", "setting": "CDK4-cyclinD1", "value": 100, "unit": "%"}, {"measurement": "remaining binding at 10 µM", "setting": "CSNK1A1L", "value": 100, "unit": "%"}, {"measurement": "remaining binding at 10 µM", "setting": "DAPK2", "value": 95, "unit": "%"}, {"measurement": "remaining binding at 10 µM", "setting": "DCAMKL3", "value": 84, "unit": "%"}, {"measurement": "remaining binding at 10 µM", "setting": "[1]", "value": 100, "unit": "%"}, {"measurement": "remaining binding at 10 µM", "setting": "EGFR(L858R)", "value": 84, "unit": "%"}, {"measurement": "remaining binding at 10 µM", "setting": "EPHA6", "value": 89, "unit": "%"}, {"measurement": "remaining binding at 10 µM", "setting": "ERBB2", "value": 92, "unit": "%"}, {"measurement": "remaining binding at 10 µM", "setting": "FLT4", "value": 91, "unit": "%"}, {"measurement": "remaining binding at 10 µM", "setting": "IKK-beta", "value": 100, "unit": "%"}, {"measurement": "remaining binding at 10 µM", "setting": "[2]", "value": 47, "unit": "%"}, {"measurement": "remaining binding at 10 µM", "setting": "[3]", "value": 94, "unit": "%"}, {"measurement": "remaining binding at 10 µM", "setting": "KIT(D816H)", "value": 66, "unit": "%"}, {"measurement": "remaining binding at 10 µM", "setting": "MAP4K2", "value": 77, "unit": "%"}, {"measurement": "remaining binding at 10 µM", "setting": "MAP4K3", "value": 94, "unit": "%"}, {"measurement": "remaining binding at 10 µM", "setting": "MARK2", "value": 70, "unit": "%"}, {"measurement": "remaining binding at 10 µM", "setting": "MELK", "value": 75, "unit": "%"}, {"measurement": "remaining binding at 10 µM", "setting": "MET(Y1235D)", "value": 66, "unit": "%"}, {"measurement": "remaining binding at 10 µM", "setting": "MST2", "value": 92, "unit": "%"}, {"measurement": "remaining binding at 10 µM", "setting": "NDR1", "value": 75, "unit": "%"}, {"measurement": "remaining binding at 10 µM", "setting": "NEK11", "value": 99, "unit": "%"}, {"measurement": "remaining binding at 10 µM", "setting": "NIK", "value": 100, "unit": "%"}, {"measurement": "remaining binding at 10 µM", "setting": "PAK4", "value": 92, "unit": "%"}, {"measurement": "remaining binding at 10 µM", "setting": "PDGFRB", "value": 75, "unit": "%"}, {"measurement": "remaining binding at 10 µM", "setting": "PFPK5(P.falciparum)", "value": 99, "unit": "%"}, {"measurement": "remaining binding at 10 µM", "setting": "PIK3CA(E545K)", "value": 65, "unit": "%"}, {"measurement": "remaining binding at 10 µM", "setting": "PIM2", "value": 96, "unit": "%"}, {"measurement": "remaining binding at 10 µM", "setting": "PRKCI", "value": 83, "unit": "%"}, {"measurement": "remaining binding at 10 µM", "setting": "PRKCQ", "value": 100, "unit": "%"}, {"measurement": "remaining binding at 10 µM", "setting": "RAF1", "value": 85, "unit": "%"}, {"measurement": "remaining binding at 10 µM", "setting": "RIPK4", "value": 81, "unit": "%"}, {"measurement": "remaining binding at 10 µM", "setting": "ROCK2", "value": 100, "unit": "%"}, {"measurement": "remaining binding at 10 µM", "setting": "SRC", "value": 97, "unit": "%"}, {"measurement": "remaining binding at 10 µM", "setting": "STK35", "value": 0.2, "unit": "%"}, {"measurement": "remaining binding at 10 µM", "setting": "STK39", "value": 70, "unit": "%"}, {"measurement": "remaining binding at 10 µM", "setting": "TAOK2", "value": 99, "unit": "%"}, {"measurement": "remaining binding at 10 µM", "setting": "ZAP70", "value": 96, "unit": "%"}]}
